ChEMBL document CHEMBL3045667, “Design, synthesis, and anticonvulsant activity of novel quinazolinone analogues” (Med Chem Res, 2011)

What was measured:
[1] = Lipophilicity, log P of the compound; assay type: physicochemical; conditions: octanol/water
Mus musculus [2] = experiment: Anticonvulsant activity in ip dosed Mus musculus (mouse) assessed as protection against pentylenetetrazole-induced seizures administered 1 hr before pentylenetetrazole challenge measured after 30 min; assay type: functional; conditions: read-out: PD50
Mus musculus [3] = experiment: Anticonvulsant activity in Mus musculus (mouse) assessed as protection against pentylenetetrazole-induced seizures at 150 mg/kg, ip administered 1 hr before pentylenetetrazole challenge measured after 30 min; assay type: functional; conditions: route intraperitoneal
Mus musculus [4] = experiment: Anticonvulsant activity in Mus musculus (mouse) assessed as protection against pentylenetetrazole-induced seizures at 100 mg/kg, ip administered 1 hr before pentylenetetrazole challenge measured after 30 min; assay type: functional; conditions: route intraperitoneal
Mus musculus [5] = experiment: Anticonvulsant activity in Mus musculus (mouse) assessed as protection against pentylenetetrazole-induced seizures at 50 mg/kg, ip administered 1 hr before pentylenetetrazole challenge measured after 30 min; assay type: functional; conditions: route intraperitoneal
Mus musculus [6] = experiment: Anticonvulsant activity in Mus musculus (mouse) assessed as protection against pentylenetetrazole-induced seizures at 20 mg/kg, ip administered 1 hr before pentylenetetrazole challenge measured after 30 min; assay type: functional; conditions: route intraperitoneal
Mus musculus [7] = experiment: Anticonvulsant activity in Mus musculus (mouse) assessed as protection against pentylenetetrazole-induced seizures at 15 mg/kg, ip administered 1 hr before pentylenetetrazole challenge measured after 30 min; assay type: functional; conditions: route intraperitoneal
Mus musculus [8] = experiment: Anticonvulsant activity in Mus musculus (mouse) assessed as protection against pentylenetetrazole-induced seizures at 10 mg/kg, ip administered 1 hr before pentylenetetrazole challenge measured after 30 min; assay type: functional; conditions: route intraperitoneal

| Structure (SMILES) | logP [1] | ED50 (Mus musculus [2]) | Activity (Mus musculus [3]) | Activity (Mus musculus [4]) | Activity (Mus musculus [5]) | Activity (Mus musculus [6]) | Activity (Mus musculus [7]) | Activity (Mus musculus [8]) |
| --- | --- | --- | --- | --- | --- | --- | --- | --- |
| N#Cc1cnn(-c2nc3ccccc3c(=O)n2-c2ccccc2)c1N | 3.01 | 90 mg/kg | 87.5% | 50% | 25% | – | – | – |
| O=C1NN=C(c2ccccc2)C(c2ccccc2)C1Sc1nc2ccccc2c(=O)n1-c1ccccc1 (stereo unspecified) | 6.4 | 68 mg/kg | 87.5% | 62.5% | 37.5% | – | – | – |
| O=c1c2ccccc2nc(N/N=C/c2ccc(Cl)cc2)n1-c1ccccc1 | 5.53 | 50 mg/kg | 100% | 100% | 50% | – | – | – |
| COc1ccc(-c2nnc3n(-c4ccccc4)c(=O)c4ccccc4n23)cc1OC | 4.44 | 160 mg/kg | 50% | 37.5% | 12.5% | – | – | – |
| CCC1(c2ccccc2)C(=O)NC(=O)NC1=O [PHENOBARBITAL] | 1.36 | 16 mg/kg | – | – | – | 62.5% | 50% | 37.5% |
| O=c1c2ccccc2n2c(-c3ccc(Cl)cc3)nnc2n1-c1ccccc1 | 5.25 | 64 mg/kg | 100% | 62.5% | 37.5% | – | – | – |
| O=C(CSc1nc2ccccc2c(=O)n1-c1ccccc1)c1ccc(Cl)cc1 | 5.5 | 80 mg/kg | 87.5% | 62.5% | 25% | – | – | – |
| COc1ccc(/C=N/Nc2nc3ccccc3c(=O)n2-c2ccccc2)cc1OC | 4.72 | 83 mg/kg | 87.5% | 62.5% | 25% | – | – | – |
| COc1ccc(C(=O)CSc2nc3ccccc3c(=O)n2-c2ccccc2)cc1 | 4.82 | 85 mg/kg | 87.5% | 50% | 37.5% | – | – | – |
| O=C(CSc1nc2ccccc2c(=O)n1-c1ccccc1)c1ccc(Br)cc1 | 5.77 | 78 mg/kg | 100% | 50% | 37.5% | – | – | – |
| O=C1C=C(Sc2nc3ccccc3c(=O)n2-c2ccccc2)C(=O)N=N1 | 2.13 | 66 mg/kg | 100% | 62.5% | 37.5% | – | – | – |
| CCn1c(SCC(=O)c2ccc(Br)cc2)nc2ccccc2c1=O | 4.45 | 86 mg/kg | 87.5% | 50% | 37.5% | – | – | – |
| CN1C(=O)CN=C(c2ccccc2)c2cc(Cl)ccc21 [DIAZEPAM] | – | 2 mg/kg | – | – | – | – | – | – |
